ChEMBL document CHEMBL1132957, “Design of potent dicyclic (4-10/5-8) gonadotropin releasing hormone (GnRH) antagonists” (J Med Chem, 2000)
Blank lines part the entries; values can stand above or below the molecule they belong to. Active and inactive are the calls of the source. The rule behind the calls is not given here. Positions of bridges follow the written chain, without caps; N, C: chain ends. Non-standard residues stand in square brackets, D forms with d. Residues, ends and D or L forms follow the SMILES beside them. dPhe(4-Cl) = N[C@H](Cc1ccc(Cl)cc1)C(=O)O; d2Nal = N[C@H](Cc1ccc2ccccc2c1)C(=O)O; d3Pal = N[C@H](Cc1cccnc1)C(=O)O; Dab = NCC[C@H](N)C(=O)O; Dap = NC[C@H](N)C(=O)O

Assays:
[1] = target: T1, Gonadotropin-releasing hormone receptor (Rattus norvegicus, UniProt P30969); experiment: Competitive radioligand binding assay, in human HEK293 cells stably transfected with the rat Gonadotropin-releasing hormone receptor; type: cell-based
T1 sequence (P30969 whole entry): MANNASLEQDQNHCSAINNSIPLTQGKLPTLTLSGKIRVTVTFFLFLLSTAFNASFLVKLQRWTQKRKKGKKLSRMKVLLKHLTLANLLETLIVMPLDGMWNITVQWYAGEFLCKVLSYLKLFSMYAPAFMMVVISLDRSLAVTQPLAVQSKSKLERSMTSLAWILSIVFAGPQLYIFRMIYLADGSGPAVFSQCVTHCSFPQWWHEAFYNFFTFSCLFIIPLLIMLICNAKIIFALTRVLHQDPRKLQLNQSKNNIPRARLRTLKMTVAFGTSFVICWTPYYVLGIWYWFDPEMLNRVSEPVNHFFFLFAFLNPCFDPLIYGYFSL

[2] = tested on: Rattus norvegicus; experiment: Evaluated for the ovulation effects in the rat by administering the drug at the doses (2.5 ug); 14/16; type: functional, organism-based
[3] = tested on: Rattus norvegicus; experiment: Evaluated for the ovulation effects in the rat by administering the drug at the doses (10 ug); 1/6; type: functional, organism-based
[4] = tested on: Rattus norvegicus; experiment: Evaluated for the ovulation effects in the rat by administering the drug at the doses (25 ug); 0/3; type: functional, organism-based
[5] = tested on: Rattus norvegicus; experiment: Evaluated for the ovulation effects in the rat by administering the drug at the doses (10 ug); 5/5; type: functional, organism-based
[6] = tested on: Rattus norvegicus; experiment: Evaluated for the ovulation effects in the rat by administering the drug at the doses (25 ug); 0/8; type: functional, organism-based
[7] = tested on: Rattus norvegicus; experiment: Evaluated for the ovulation effects in the rat by administering the drug at the doses (25 ug); 0/4; type: functional, organism-based
[8] = tested on: Rattus norvegicus; experiment: Evaluated for the ovulation effects in the rat by administering the drug at the doses (25 ug); 4/5; type: functional, organism-based
[9] = tested on: Rattus norvegicus; experiment: Evaluated for the ovulation effects in the rat by administering the drug at the doses (50 ug); 0/7; type: functional, organism-based
[10] = tested on: Rattus norvegicus; experiment: Evaluated for the ovulation effects in the rat by administering the drug at the doses (10 ug); 4/6; type: functional, organism-based
[11] = tested on: Rattus norvegicus; experiment: Evaluated for the ovulation effects in the rat by administering the drug at the doses (5 ug); 3/3; type: functional, organism-based
[12] = tested on: Rattus norvegicus; experiment: Evaluated for the ovulation effects in the rat by administering the drug at the doses (25 ug); 0/5; type: functional, organism-based

Structure (SMILES): CC(=O)N[C@H](Cc1ccc2ccccc2c1)C(=O)N[C@H](Cc1ccc(Cl)cc1)C(=O)N[C@H](Cc1cccnc1)C(=O)N[C@H]1CC(=O)NC[C@@H](C(N)=O)NC(=O)[C@@H]2CCCN2C(=O)[C@@H]2CCCNC(=O)[C@H](Cc3ccccc3)NC(=O)CC[C@H](NC1=O)C(=O)N[C@H](CCCN=C(N)N)C(=O)N[C@@H](CC(C)C)C(=O)N2
Ki [1]: 0.27 nM | Activity [5]: inactive | Activity [6]: Active

Structure (SMILES): CC(=O)N[C@H](Cc1ccc2ccccc2c1)C(=O)N[C@H](Cc1ccc(Cl)cc1)C(=O)N[C@H](Cc1cccnc1)C(=O)N[C@H]1CC(=O)NC[C@@H](C(N)=O)NC(=O)[C@@H]2CCCN2C(=O)[C@@H]2CCNC(=O)[C@H](Cc3ccccc3)NC(=O)CC[C@H](NC1=O)C(=O)N[C@H](CCCNC(N)=O)C(=O)N[C@@H](CC(C)C)C(=O)N2
Ki [1]: 0.2 nM | Activity [5]: inactive | Activity [7]: Active

Structure (SMILES): CC[C@H](NC(C)=O)C(=O)N[C@@H](Cc1ccc(Cl)cc1)C(=O)N[C@@H](Cc1c[nH]c2ccccc12)C(=O)N[C@@H](CC(=O)O)C(=O)N[C@@H]1CCC(=O)NCCCC[C@@H](C(=O)N2CCC[C@@H]2C(=O)N[C@@H](C)C(N)=O)NC(=O)[C@H](CC(C)C)NC(=O)[C@@H](CCCN=C(N)N)NC1=O (stereo in doubt; 13)
Activity [8]: Weak activity | Activity [9]: Active

Now from value to molecule, other results behind:

Ki [1]: 0.16 nM
Structure (SMILES): CC(=O)N[C@H](Cc1ccc2ccccc2c1)C(=O)N[C@H](Cc1ccc(Cl)cc1)C(=O)N[C@H](Cc1cccnc1)C(=O)N[C@H]1CC(=O)NC[C@@H](C(N)=O)NC(=O)[C@@H]2CCCN2C(=O)[C@@H]2CCNC(=O)CNC(=O)CC[C@H](NC1=O)C(=O)N[C@H](CCCN=C(N)N)C(=O)N[C@@H](CC(C)C)C(=O)N2 (Ac-[d2Nal][dPhe(4-Cl)][d3Pal]DE[dR]L[Dab]P[Dap]-NH2; lactam 4-10; linker 5-8 via G)
Activity [2]: Weak activity | Activity [3]: Weak activity | Activity [4]: Active

Ki [1]: 0.35 nM
Structure (SMILES): CC(=O)N[C@H](Cc1ccc2ccccc2c1)C(=O)N[C@H](Cc1ccc(Cl)cc1)C(=O)N[C@H](Cc1cccnc1)C(=O)N[C@H]1CC(=O)NC[C@@H](C(N)=O)NC(=O)[C@@H]2CCCN2C(=O)[C@@H]2CCNC(=O)CNC(=O)C[C@H](NC1=O)C(=O)N[C@H](CCCN=C(N)N)C(=O)N[C@@H](CC(C)C)C(=O)N2
Activity [10]: Weak activity | Activity [11]: inactive | Activity [12]: Active
